The assay addresses T1, human microsomal FMO1 (Homo sapiens, UniProt Q01740).
T1 sequence (Q01740 2-532): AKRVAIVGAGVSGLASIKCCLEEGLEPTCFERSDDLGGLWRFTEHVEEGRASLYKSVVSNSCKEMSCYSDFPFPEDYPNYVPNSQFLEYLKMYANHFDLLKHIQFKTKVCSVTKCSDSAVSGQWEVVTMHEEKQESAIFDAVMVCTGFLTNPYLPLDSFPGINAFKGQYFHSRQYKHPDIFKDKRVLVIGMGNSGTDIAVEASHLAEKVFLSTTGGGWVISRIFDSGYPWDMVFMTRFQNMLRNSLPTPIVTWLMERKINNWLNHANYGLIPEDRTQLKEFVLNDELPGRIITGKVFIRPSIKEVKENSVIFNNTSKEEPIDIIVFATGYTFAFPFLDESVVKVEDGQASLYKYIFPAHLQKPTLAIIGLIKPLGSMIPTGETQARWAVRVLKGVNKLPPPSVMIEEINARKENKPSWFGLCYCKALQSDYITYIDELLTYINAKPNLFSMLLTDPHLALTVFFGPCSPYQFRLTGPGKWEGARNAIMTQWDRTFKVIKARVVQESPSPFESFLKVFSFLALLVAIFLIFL
The experiment in a line: absorption spectrum. The format is biochemical. Conditions: PBS; microsomal FMO1 as positive control.

On to `Cc1cc2nc3c(=O)[nH]c(=O)nc-3n(C[C@H](O)[C@H](O)[C@H](O)COP(=O)(O)OP(=O)(O)OC[C@H]3O[C@@H](n4cnc5c(N)ncnc54)[C@H](O)[C@@H]3O)c2cc1C` [FAD], for which the absorption spectrum entry is recorded as “FAD bound to human microsomal FMO1 (orange)”.

For the origin of these results see article PMC10945809 (Proceedings of the National Academy of Sciences of the …, 2024).
